One test addresses T1, RANK (Homo sapiens, UniProt Q9Y6Q6).
T1 construct: gene TNFRSF11A; extracellular domain
T1 sequence (Q9Y6Q6 30-212 limits assumed): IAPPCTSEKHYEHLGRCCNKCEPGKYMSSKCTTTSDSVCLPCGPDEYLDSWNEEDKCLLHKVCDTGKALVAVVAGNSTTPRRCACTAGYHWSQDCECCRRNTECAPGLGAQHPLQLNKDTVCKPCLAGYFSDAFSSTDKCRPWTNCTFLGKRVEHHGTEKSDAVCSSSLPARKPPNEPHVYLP
Description: SPR kinetics (Biacore S200), RANK amine-coupled on CM5 chip. In kind it is binding. In general terms: In SPR one partner is held on a chip, and binding of the other changes the refractive index at the surface.

A further test deals with T2, RANKL (Homo sapiens, UniProt O14788).
T2 construct: gene TNFSF11; extracellular domain
T2 sequence (O14788 69-317 limits assumed): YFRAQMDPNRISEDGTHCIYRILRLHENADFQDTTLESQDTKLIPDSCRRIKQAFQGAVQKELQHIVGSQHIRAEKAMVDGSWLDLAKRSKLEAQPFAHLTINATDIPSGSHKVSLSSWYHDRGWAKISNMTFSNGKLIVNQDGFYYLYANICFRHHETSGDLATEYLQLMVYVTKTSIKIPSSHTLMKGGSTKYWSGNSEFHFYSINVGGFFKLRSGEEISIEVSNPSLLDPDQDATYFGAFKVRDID
Description: SPR kinetics (Biacore S200), RANKL amine-coupled on CM5 chip. In kind it is binding.

A word on the Kd: it is the equilibrium constant for the complex coming apart. A higher Kd goes with lower affinity. As for `COc1cccc2c1C[C@@H]1c3c(cc4c(c3-2)OCO4)CCN1C` [SA, Stephanine], the results for the dissociation constant Kd at RANK and at RANKL were 3.7 µM and 76.5 µM, respectively.

The values are drawn from publication PMC11619157, “Stephanine Protects Against Osteoporosis by Suppressing Osteoclastogenesis via Inhibition of the RANKL—RANK Interaction” (Journal of Cellular and Molecular Medicine, 2024).
